The values that follow come from patent publication US12516036B2, “Crystal form of 3-(4-(benzyloxy)phenyl)hex-4-inoic acid derivative” (HYUNDAI PHARM CO., LTD., priority 2019, dated 2026).

Data set [1] in a line: Thermal stability test (thermal stress, 80° C.). Type of data set: physicochemical. As to conditions: for Change in properties (appearance): 80° C.; for Purity (%) Initial: before thermal stress test; for Purity (%) Initial / Purity (%) Month 1 / Purity (%) Day 6 / Purity (%) Day 14: HPLC; for Purity change (%) Month 1 − Initial / Purity (%) Month 1 / Purity (%) Day 6 / Purity (%) Day 14: sealed vial, oven 80° C.; for Purity change (%) Month 1 − Initial: 1 month vs initial; for Purity (%) Month 1: 1 month; for Purity (%) Day 6: 6 days; for Purity (%) Day 14: 14 days; for Change in XRD pattern before and after thermal stress: 80° C. thermal stress (FIG. 11-14). The method, then: The crystal form I, crystal form II, and amorphous form samples of a compound of Chemical Formula 1 were subjected to a thermal stability test.
0.3 g of each sample was input into a 20 mL vial (prepared 0.3 g*3 ea for each sample), and the vial was sealed by closing a lid and then allowed to stand in an oven set at 80° C. Afterward, the sample was taken out after 6 days, 14 days, and 1 month had elapsed, and the changes in properties, purity, and XRD pattern before and after thermal stress conditions were examined. • Purity was measured under the following conditions using a HPLC. • Column: YMC-Pack Pro C18, 5 um, 4.6×150 mm • Column temperature: 35° C. • Flow rate: 1.0 mL/min • Injection volume: 5 uL • Wavelength: 220 nm • Mobile Phase A: 0.1% TFA in H2O/MeOH=60/40 • Mobile Phase B: MeOH/0.1% TFA in ACN=60/40 • Gradient:
• Diluent: H2O/ACN=80/20 • Run time: 40 min • Sample concentration: 0.7 mg/mL

A short description of data set [2]: Compressibility test (bulk/tapped density, Carr index, Hausner ratio). The class given is physicochemical. As to conditions: for Carr Index (CI): CI=100×(1−BD/TD); for Hausner ratio (Hr): Hr=TD/BD; for Description of flow: criteria of Table 5; for Bulk density BD / Tapped density TD: unit assumed. The text has this: Since a drug that causes a lot of static electricity has difficulty in handling and compressing to form a tablet when formulated, it is very difficult to implement a preparation with a uniform drug content. Accordingly, in relation to the static electricity-inducing capability and flowability of the three types of crystal form I, crystal form II, and the amorphous form, the compressibility of each preparation containing these drugs was examined.
The Carr index is used as an indication of the compressibility of a preparation and is related to convenience in formulation, that is, static electricity-inducing capability, flowability, and uniformity of drug content.
The Carr Index (CI) is calculated as follows. CI=100×(1−BD/TD) • BD: bulk density, TD: tapped density
The Hausner ratio (Hr) is also an indication related to the flowability of a powder or granular drug.
The Hausner ratio (Hr) is calculated as follows. Hr=TD/BD
As a result of the test, the bulk density and tapped density of the crystal form I, the crystal form II, and the amorphous form were obtained and summarized in Table 4, through which the Carr Index (CI) and Hausner ratio (Hr) were obtained, and based on the criteria in Table 5, the evaluation results for the Carr Index (CI), Hausner ratio (Hr), and flowability are shown in Table 6.

The nature of data set [3]: Storage stability test (formulated powder, 60° C. and 75% RH). The class given is physicochemical. As to conditions: for Purity (%) Initial: powder mix with microcrystalline cellulose and light anhydrous silicic acid; for Purity (%) Week 2 / Purity (%) Week 4 / Purity (%) Week 8 / Purity change (%) Week 8 − Initial: powder mix; for Purity (%) Week 2: 2 weeks; for Purity (%) Week 4: 4 weeks; for Purity (%) Week 8: 8 weeks; for Purity change (%) Week 8 − Initial: 8 weeks vs initial. The method, then:
In order to confirm stability when the crystal form I, crystal form II, and amorphous form of a compound of Chemical Formula 1 were formulated, powder obtained by mixing 50 mg of each sample, 149 mg of microcrystalline cellulose, and 1 mg of light anhydrous silicic acid was input into a brown glass bottle and allowed to stand in a stability chamber set under conditions of 60° C. and 75% RH, and the sample was taken out after 2 weeks, 4 weeks, 8 weeks had elapsed to confirm the purity of the compound of Chemical Formula 1 over time.
When the storage period for each storage condition was reached, 35 mg of the compound of Chemical Formula 1 was taken from each sample, input into a 50 mL volumetric flask, dissolved with an appropriate amount of diluent, and marked. The resulting solution was input into a glass centrifuge tube and centrifuged at 3,000 rpm and 5° C. for 10 minutes. The sample was taken using a glass pipette and input into a HPLC vial for analysis.

Data set [4] addresses free fatty acid receptor 1 (FFAR1)/a G-protein coupled receptor (GPR40) (Homo sapiens, UniProt O14842). As to conditions: cited from earlier work.
For data set [5] the following is noted: in vivo; cited from earlier work.
Where [6] appears, read: after 1 month of the thermal stress test (FIG. 10).

Sequence of free fatty acid receptor 1 (FFAR1)/a G-protein coupled receptor (GPR40) (O14842 whole entry, species assumed): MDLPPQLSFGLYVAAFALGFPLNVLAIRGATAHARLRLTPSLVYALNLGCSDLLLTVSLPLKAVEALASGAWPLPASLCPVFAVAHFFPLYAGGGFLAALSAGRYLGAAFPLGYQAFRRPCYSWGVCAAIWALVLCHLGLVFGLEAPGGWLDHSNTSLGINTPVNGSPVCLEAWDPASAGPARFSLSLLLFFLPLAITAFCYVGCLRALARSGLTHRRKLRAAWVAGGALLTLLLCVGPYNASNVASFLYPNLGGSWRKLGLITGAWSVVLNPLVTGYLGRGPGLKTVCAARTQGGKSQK

On to `CC#C[C@@H](CC(=O)O)c1ccc(OCc2cccc(C3=CCC4(CC3)OCCO4)c2)cc1` [Amorphous form, (3S)-3-(4-(3-(1,4-dioxaspiro[4,5]dec-7-en-8-yl)benzyloxy)phenyl)hex-4-inoic acid], for which the “Change in properties (appearance)” value in data set [1] (after 6 days of the thermal stress test (FIG. 10)) is “turned yellow”. Besides, in data set [1], the “Purity (%) Initial” value was found to be 99.33%, the “Purity change (%) Month 1 − Initial” value is −11.69%, the “Purity (%) Month 1” value stood at 87.64% and the “Purity (%) Day 6” value worked out at 96.76%. Besides, the “Purity (%) Day 14” value in data set [1] came out at 94.35%. For the same molecule, in data set [2], the “Carr Index (CI)” value was determined as 18.48, the “Hausner ratio (Hr)” value was 1.23, the Description of flow entry is “Fair (16-20)” and the Bulk density BD was 0.353 g/mL. The Tapped density TD in data set [2] is 0.433 g/mL. Besides, the “Purity (%) Initial” value in data set [3] came to 100.6%. Also, in data set [3] (60° C. and 75% RH), the “Purity (%) Week 2” value is on record as 91.5%, the “Purity (%) Week 4” value is 86.8%, the “Purity (%) Week 8” value came out at 77.5% and the “Purity change (%) Week 8 − Initial” value is recorded as −23.1%.

Take `CC#C[C@@H](CC(=O)O)c1ccc(OCc2cccc(C3=CCC4(CC3)OCCO4)c2)cc1` [Crystal form I, (3S)-3-(4-(3-(1,4-dioxaspiro[4,5]dec-7-en-8-yl)benzyloxy)phenyl)hex-4-inoic acid]: in data set [1], the “Change in XRD pattern before and after thermal stress” value is listed as “no significant change in XRD pattern peak”; the “Purity (%) Initial” value was determined as 99.40%; the “Purity change (%) Month 1 − Initial” value is −3.65%; the “Purity (%) Month 1” value turned out to be 95.75%. Moreover, in data set [1], the “Purity (%) Day 6” value stood at 98.67% and the “Purity (%) Day 14” value amounted to 97.91%. In addition, the “Change in properties (appearance)” value in data set [1] (setting [6]) is reported as “no significant change in properties”. In data set [2], the “Carr Index (CI)” value amounted to 13.41, the “Hausner ratio (Hr)” value worked out at 1.15, the Description of flow result is recorded as “Good (11-15)” and the Bulk density BD is 0.381 g/mL. Moreover, the Tapped density TD in data set [2] is 0.44 g/mL. The Storage stability ranking result in data set [3] (60° C. and 75% RH, compared among crystal form I, crystal form II, amorphous form) is recorded as “stablest”. Also, the “Purity (%) Initial” value in data set [3] is on record as 100.2%. In addition, in data set [3] (60° C. and 75% RH), the “Purity (%) Week 2” value is listed as 101.8%, the “Purity (%) Week 4” value is on record as 100.9%, the “Purity (%) Week 8” value stood at 99.9% and the “Purity change (%) Week 8 − Initial” value was −0.3%.

Turning to `CC#C[C@@H](CC(=O)O)c1ccc(OCc2cccc(C3=CCC4(CC3)OCCO4)c2)cc1` [Crystal form II, (3S)-3-(4-(3-(1,4-dioxaspiro[4,5]dec-7-en-8-yl)benzyloxy)phenyl)hex-4-inoic acid], in data set [1], the “Change in XRD pattern before and after thermal stress” value is “shifting of specific peaks”; the “Purity (%) Initial” value is recorded as 99.53%; the “Purity change (%) Month 1 − Initial” value is given as −3.75%; the “Purity (%) Month 1” value is reported as 95.78%. Besides, in data set [1], the “Purity (%) Day 6” value amounted to 98.73% and the “Purity (%) Day 14” value was found to be 97.80%. Also, in data set [1] (setting [6]), the “Change in properties (appearance)” value is on record as “no significant change in properties”. Besides, in data set [2], the “Compressibility test results (in words)” value was “very poor”; the “Carr Index (CI)” value is reported as 54.05; the “Hausner ratio (Hr)” value is on record as 2.18; the Description of flow entry is given as “Very, very poor”. Also, in data set [2], the Bulk density BD came out at 0.136 g/mL and the Tapped density TD was found to be 0.296 g/mL. Also, the Static electricity-inducing capability result in data set [2] (filling a die for tableting) is reported as “excessively caused static electricity”. Further, in data set [3], the “Purity (%) Initial” value stood at 99.1%. In addition, in data set [3] (60° C. and 75% RH), the “Purity (%) Week 2” value came out at 96.2%, the “Purity (%) Week 4” value is 92.3%, the “Purity (%) Week 8” value was 88% and the “Purity change (%) Week 8 − Initial” value is reported as −11.1%.

`CC#C[C@@H](CC(=O)O)c1ccc(OCc2cccc(C3=CCC4(CC3)OCCO4)c2)cc1` [compound of Chemical Formula 1, (3S)-3-(4-(3-(1,4-dioxaspiro[4,5]dec-7-en-8-yl)benzyloxy)phenyl)hex-4-inoic acid]: the “Activation of FFAR1/GPR40 (increase of intracellular calcium concentration)” value in data set [4] is recorded as “activates”. Besides, in data set [5], the “Blood sugar lowering effect” value is reported as “excellent blood sugar lowering effect”.
